The results in this text go back to ChEMBL document CHEMBL1126075, “Chemistry and anti-HIV properties of 2'-fluoro-2',3'-dideoxyarabinofuranosylpyrimidines” (J Med Chem, 1992).

A short description of data set [1]: Partition coefficient (logP). Particulars: octanol/water. Type of data set: physicochemical.
Data set [2] has as its system ATH-8 cell line. Nature of the data set: Percent protection of ATH8 cells from HIV-induced cytopathic effects at a concentration of 5 uM. It counts as functional, Homo sapiens.
For data set [3], the system named is ATH-8 cell line. Nature of the data set: Percent protection of ATH8 cells from HIV-induced cytopathic effects at a concentration of 0.5 uM. It counts as functional, Homo sapiens. On the technique in general: Damage to the host cells serves as the signal in cytopathic effect assays.
Data set [4] deals with ATH-8 cell line. Description: Percent cytotoxicity against ATH8 cells at a concentration of 0.5 uM. To be noted: Homo sapiens. It counts as functional.
The subject of data set [5] is ATH-8 cell line. Nature of the data set: Percent cytotoxicity against ATH8 cells at a concentration of 5 uM. To be noted: Homo sapiens. It counts as functional.
For data set [6], the system named is ATH-8 cell line. Description: Percent protection of ATH8 cells from HIV-induced cytopathic effects at a concentration of 1 uM. It counts as functional, Homo sapiens.
The next data set relates to CCRF-CEM. Description: Effect on HIV-induced cytopathogenesis in CEM cells. Type of data set: functional, cell-based. Particulars: Homo sapiens.
Data set [7] has as its system ATH-8 cell line. Description: Percent protection of ATH8 cells from HIV-induced cytopathic effects at a concentration of 0.2 uM. Type of data set: functional, Homo sapiens.
The nature of data set [8]: Therapeutic index (IC50/EC50) was determined. Particulars: read-out: TI.
Data set [9] has as its system ATH-8 cell line. Description: Percent cytotoxicity against ATH8 cells at a concentration of 1 uM. Type of data set: functional. To be noted: Homo sapiens.
Data set [10] deals with ATH-8 cell line. Nature of the data set: Percent cytotoxicity against ATH8 cells at a concentration of 0.2 uM. To be noted: Homo sapiens. Type of data set: functional.

In general, logP refers to a log measure of how a compound divides between an organic and an aqueous phase. A lower logP goes with lower lipophilicity. A word on the EC50: it is the concentration at which the effect is half-maximal. Usually IC50 stands for the midpoint of a concentration-inhibition curve. Low readings indicate inhibition by little substance, high ones a need for much substance.

Bounds are passed on as bounds.

The compound `Nc1ccn([C@H]2C=C[C@@H](CO)O2)c(=O)n1` had a logP in [1] of -1.57.

In [1], `Cc1cn([C@@H]2O[C@H](CO)C[C@H]2F)c(=O)[nH]c1=O` displayed a logP of -0.44.

On to `Nc1ccn([C@@H]2O[C@H](CO)C[C@@H]2F)c(=O)n1`, for which the Protection is on record as 53% in the data set on ATH-8 cell line [2], 25% in the data set with ATH-8 cell line [3], 56% in the data set on ATH-8 cell line [6] and 3% in the data set on ATH-8 cell line [7]. In addition, the lipophilicity (logP) in [1] is -1.18. Further, the cytotoxicity at 0.5 µM in the data set on ATH-8 cell line [4] is 8%. In the data set on ATH-8 cell line [5], this compound returned a cytotoxicity at 5 µM of 1%. Also, the EC50 in the data set with CCRF-CEM turned out to be 1100 nM. Also, the IC50 in the data set on CCRF-CEM was 43 µM. Further, in data set [8], the selectivity ratio came to 39. For the same compound, the cytotoxicity at 1 µM in the data set on ATH-8 cell line [9] is 4%. In the data set on ATH-8 cell line [10], the cytotoxicity at 0.2 µM came out at 0%.

As for `O=c1ccn(C2CCC(CO)O2)c(=O)[nH]1` (stereo not given), the lipophilicity (logP) in [1] was -1.

In [1], `Nc1nc(=O)n(C2OC(CO)CC2F)cc1Cl` (stereo not given) gave a logP of -0.46.

For `Nc1nc(=O)n([C@@H]2CC[C@H](CO)O2)cc1F`, the Protection in the data set on ATH-8 cell line [2] came out at 99%; in the data set with ATH-8 cell line [3], 96%; with ATH-8 cell line [6], 100%; with ATH-8 cell line [7] it was 71%. For the same compound, the log partition coefficient (logP) in [1] is -1.09. In the data set on ATH-8 cell line [4], the cytotoxicity at 0.5 µM amounted to 0%. Further, the cytotoxicity at 5 µM in the data set on ATH-8 cell line [5] is 4%. Moreover, it took 100 nM to reach a half-maximal effect in the data set on CCRF-CEM (EC50). In the data set with CCRF-CEM, this compound showed an IC50 of more than 40 µM. The selectivity ratio in [8] was more than 400. Also, the cytotoxicity at 1 µM in the data set on ATH-8 cell line [9] is 1%. Moreover, the cytotoxicity at 0.2 µM with ATH-8 cell line [10] was 0%.

For `O=c1[nH]c(=O)n(C2OC(CO)CC2F)cc1F` (stereo not given), in [1], the logP was -0.72.

Turning to `Nc1nc(=O)n(C2OC(CO)CC2F)cc1F` (stereo not given), the Protection in the data set with ATH-8 cell line [2] is listed as 73%; in the data set on ATH-8 cell line [3], 8%; in the data set with ATH-8 cell line [6] it was 7%; in the data set on ATH-8 cell line [7] it was 0%. Moreover, in data set [1], the logP is -0.92. Moreover, the cytotoxicity at 0.5 µM in the data set on ATH-8 cell line [4] is 0%. In the data set on ATH-8 cell line [5], the cytotoxicity at 5 µM turned out to be 0%. Besides, the response in the data set on CCRF-CEM was half-maximal at 57700 nM (EC50). In the data set with CCRF-CEM, this compound registered an IC50 of more than 580 µM. Moreover, in data set [8], the selectivity ratio was more than 10. The same compound had a cytotoxicity at 1 µM in the data set with ATH-8 cell line [9] of 8%. In the data set on ATH-8 cell line [10], the cytotoxicity at 0.2 µM was found to be 0%.

On to `O=c1ccn(C2OC(CO)CC2F)c(=O)[nH]1` (stereo not given), for which the logP in data set [1] was -0.87.

On to `O=c1[nH]c(=O)n(C2OC(CO)CC2F)cc1Cl` (stereo not given), for which the logP in data set [1] was -0.28.

For the compound `O=c1ccn([C@@H]2O[C@H](CO)[C@@H](O)[C@H]2O)c(=O)[nH]1` [URIDINE], the logP in data set [1] is -1.94.

For `Nc1ccn([C@H]2CC[C@@H](CO)O2)c(=O)n1` [ZALCITABINE], the Protection in the data set on ATH-8 cell line [2] is given as 88%; with ATH-8 cell line [3], 100%; in the data set with ATH-8 cell line [6], 100%; in the data set on ATH-8 cell line [7] it was 93%. Besides, in the data set on ATH-8 cell line [4], the cytotoxicity at 0.5 µM is 0%. This compound returned a cytotoxicity at 5 µM with ATH-8 cell line [5] of 1%. For the same compound, in the data set on CCRF-CEM, a half-maximal effect (EC50) was put at 300 nM. Also, the concentration for half-maximal inhibition (IC50) in the data set with CCRF-CEM turned out to be 120 µM. Moreover, the selectivity ratio in data set [8] came to 380. Moreover, in the data set on ATH-8 cell line [9], the cytotoxicity at 1 µM came to 9%. Further, the cytotoxicity at 0.2 µM in the data set with ATH-8 cell line [10] worked out at 6%.
